Assays:
Type in all cases: cell-based
[1] = target: human EGFR exon 20 insertion NPG (H773_V774insNPG) (Homo sapiens, UniProt P00533, INS773NPG, cells depend on it); test: Ba/F3-EGFR-Exon20-NPG cell anti-proliferative assay (CellTiter 96 MTS, 72 h); settings: read-out: EGFR exon 20 NPG insertion IC50
[2] = target: human EGFR E746-A750 deletion and T790M Mutation (DT) (Homo sapiens (Human), UniProt P00533, DEL746-750/T790M); test: Ba/F3-EGFR-Del/T790M cell anti-proliferative assay (CellTiter 96 MTS, 72 h); settings: Ba/F3-EGFR-Del/T790M cells; read-out: EGFR exon 19 deletion and T790M mutation IC50
Chain of human EGFR E746-A750 deletion and T790M Mutation (DT) (P00533 other isoform, or with tags, fused parts or gaps T790M/del E746-A750): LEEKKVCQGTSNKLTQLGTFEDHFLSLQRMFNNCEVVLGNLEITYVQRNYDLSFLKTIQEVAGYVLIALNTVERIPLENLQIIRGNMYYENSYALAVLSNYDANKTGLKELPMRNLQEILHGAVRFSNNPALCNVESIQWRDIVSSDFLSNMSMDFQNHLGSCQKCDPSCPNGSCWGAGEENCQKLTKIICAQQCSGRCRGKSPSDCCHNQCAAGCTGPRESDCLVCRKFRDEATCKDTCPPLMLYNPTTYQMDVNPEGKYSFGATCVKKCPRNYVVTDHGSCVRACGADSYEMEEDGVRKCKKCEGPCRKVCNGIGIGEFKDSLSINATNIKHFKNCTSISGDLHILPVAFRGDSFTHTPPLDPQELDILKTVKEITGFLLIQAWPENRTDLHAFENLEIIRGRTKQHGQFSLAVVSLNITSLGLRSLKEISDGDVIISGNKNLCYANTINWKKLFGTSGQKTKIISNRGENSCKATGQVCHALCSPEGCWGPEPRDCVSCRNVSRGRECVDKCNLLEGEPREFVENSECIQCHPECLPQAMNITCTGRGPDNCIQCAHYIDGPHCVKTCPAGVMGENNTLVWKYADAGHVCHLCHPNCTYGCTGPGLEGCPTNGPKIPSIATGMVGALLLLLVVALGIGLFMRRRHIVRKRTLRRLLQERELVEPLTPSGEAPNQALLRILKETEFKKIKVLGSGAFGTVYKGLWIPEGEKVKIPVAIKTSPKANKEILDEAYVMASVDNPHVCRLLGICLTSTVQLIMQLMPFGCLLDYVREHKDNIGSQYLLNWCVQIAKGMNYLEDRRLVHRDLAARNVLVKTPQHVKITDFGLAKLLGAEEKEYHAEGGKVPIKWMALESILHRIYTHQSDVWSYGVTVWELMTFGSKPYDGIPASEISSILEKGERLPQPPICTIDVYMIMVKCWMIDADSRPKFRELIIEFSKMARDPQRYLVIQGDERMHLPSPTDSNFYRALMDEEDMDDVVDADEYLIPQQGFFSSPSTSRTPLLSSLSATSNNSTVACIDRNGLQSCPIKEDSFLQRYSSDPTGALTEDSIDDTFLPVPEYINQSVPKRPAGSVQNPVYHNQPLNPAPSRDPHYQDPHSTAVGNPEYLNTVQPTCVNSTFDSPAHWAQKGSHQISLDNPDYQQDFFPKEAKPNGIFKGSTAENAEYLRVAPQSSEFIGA

[3] = target: Her2 exon 20 YVMA insertion (A775_G776ins YVMA) (Homo sapiens (Human), UniProt P04626, INS775YVMA); test: Ba/F3-Her2 Exon20 YVMA cell anti-proliferative assay (CellTiter 96 MTS, 72 h); settings: Ba/F3-Her2 Exon20 YVMA cells
Chain of Her2 exon 20 YVMA insertion (A775_G776ins YVMA) (P04626 other isoform, or with tags, fused parts or gaps ins YVMA behind 775): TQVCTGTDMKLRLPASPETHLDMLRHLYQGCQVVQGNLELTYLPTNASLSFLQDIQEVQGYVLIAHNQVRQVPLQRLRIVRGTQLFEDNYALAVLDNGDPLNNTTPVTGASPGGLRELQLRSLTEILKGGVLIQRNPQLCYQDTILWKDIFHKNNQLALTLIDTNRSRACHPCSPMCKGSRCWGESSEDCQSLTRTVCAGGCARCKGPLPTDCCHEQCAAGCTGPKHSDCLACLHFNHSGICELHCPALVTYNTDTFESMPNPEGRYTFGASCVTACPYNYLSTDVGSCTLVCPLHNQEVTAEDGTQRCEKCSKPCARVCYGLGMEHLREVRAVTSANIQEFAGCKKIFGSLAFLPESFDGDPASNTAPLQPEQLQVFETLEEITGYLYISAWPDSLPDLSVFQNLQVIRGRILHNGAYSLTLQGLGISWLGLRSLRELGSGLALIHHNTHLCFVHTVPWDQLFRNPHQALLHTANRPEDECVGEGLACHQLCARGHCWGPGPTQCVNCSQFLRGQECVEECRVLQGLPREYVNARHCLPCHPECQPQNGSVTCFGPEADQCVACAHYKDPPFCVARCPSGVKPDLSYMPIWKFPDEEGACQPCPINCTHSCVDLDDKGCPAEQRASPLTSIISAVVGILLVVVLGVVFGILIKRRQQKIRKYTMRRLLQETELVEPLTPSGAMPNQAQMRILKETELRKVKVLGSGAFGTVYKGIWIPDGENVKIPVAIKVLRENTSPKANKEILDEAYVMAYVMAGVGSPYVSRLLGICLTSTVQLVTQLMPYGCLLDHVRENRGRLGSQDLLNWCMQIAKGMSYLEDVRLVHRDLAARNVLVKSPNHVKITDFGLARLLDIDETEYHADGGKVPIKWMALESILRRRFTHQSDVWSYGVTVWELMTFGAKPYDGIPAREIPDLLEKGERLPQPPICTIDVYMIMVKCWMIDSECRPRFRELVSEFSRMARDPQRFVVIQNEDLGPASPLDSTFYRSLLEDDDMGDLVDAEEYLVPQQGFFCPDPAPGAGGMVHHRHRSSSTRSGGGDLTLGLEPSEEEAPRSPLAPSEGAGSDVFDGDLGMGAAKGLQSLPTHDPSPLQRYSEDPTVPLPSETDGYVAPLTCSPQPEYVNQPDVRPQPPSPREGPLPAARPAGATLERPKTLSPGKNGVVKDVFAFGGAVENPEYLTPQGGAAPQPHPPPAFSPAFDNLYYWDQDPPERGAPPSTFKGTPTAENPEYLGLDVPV
Text: Ba/F3 cells expressing Her2 Exon20 YVMA insertions (named Ba/F3-Her2 Exon20 YVMA) can proliferate in the absence of IL-3.

Chain of human EGFR exon 20 insertion NPG (H773_V774insNPG) (P00533 with tags, fused parts or gaps INS773NPG limits assumed): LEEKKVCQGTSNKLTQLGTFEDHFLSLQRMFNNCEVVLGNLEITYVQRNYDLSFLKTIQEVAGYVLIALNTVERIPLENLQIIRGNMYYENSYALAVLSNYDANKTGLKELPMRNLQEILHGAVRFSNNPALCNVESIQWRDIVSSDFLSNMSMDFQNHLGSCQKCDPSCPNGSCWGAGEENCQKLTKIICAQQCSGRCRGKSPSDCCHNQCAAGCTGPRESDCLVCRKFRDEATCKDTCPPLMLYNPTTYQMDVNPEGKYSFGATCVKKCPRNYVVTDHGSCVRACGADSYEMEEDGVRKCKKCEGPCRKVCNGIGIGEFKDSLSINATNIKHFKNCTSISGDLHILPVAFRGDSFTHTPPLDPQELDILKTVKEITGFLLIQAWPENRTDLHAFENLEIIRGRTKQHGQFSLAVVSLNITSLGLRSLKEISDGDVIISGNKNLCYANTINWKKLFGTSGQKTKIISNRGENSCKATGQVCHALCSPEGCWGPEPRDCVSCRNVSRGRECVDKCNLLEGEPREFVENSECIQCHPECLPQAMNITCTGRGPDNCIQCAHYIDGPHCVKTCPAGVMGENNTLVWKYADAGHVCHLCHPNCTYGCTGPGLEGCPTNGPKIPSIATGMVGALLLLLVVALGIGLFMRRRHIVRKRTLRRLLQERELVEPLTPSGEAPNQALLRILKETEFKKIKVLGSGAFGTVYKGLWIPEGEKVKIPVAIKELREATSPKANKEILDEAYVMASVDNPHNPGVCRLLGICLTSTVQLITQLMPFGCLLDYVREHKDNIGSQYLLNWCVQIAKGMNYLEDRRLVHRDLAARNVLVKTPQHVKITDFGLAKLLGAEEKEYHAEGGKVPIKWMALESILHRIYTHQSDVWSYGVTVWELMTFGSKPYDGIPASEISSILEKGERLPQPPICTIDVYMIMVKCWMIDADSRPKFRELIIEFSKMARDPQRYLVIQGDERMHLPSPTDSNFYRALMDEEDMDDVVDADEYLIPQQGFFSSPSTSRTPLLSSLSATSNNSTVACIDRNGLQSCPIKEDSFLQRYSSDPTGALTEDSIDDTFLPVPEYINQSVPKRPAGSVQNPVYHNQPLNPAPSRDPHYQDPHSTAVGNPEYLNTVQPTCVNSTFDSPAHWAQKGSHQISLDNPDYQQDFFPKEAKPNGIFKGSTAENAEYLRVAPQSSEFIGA

Compound	IC50 [1] [nM]	IC50 [2] [nM]	IC50 [3] [nM]
C=CC(=O)Nc1cc(Nc2ncc(Cl)c(-c3cnn4ccccc34)n2)c(OC)cc1N(C)CCN(CC)CC [Example 53, N-(5-((5-chloro-4-(pyrazolo[1,5-a]pyridin-3-yl)pyrimidin-2-yl)amino)-2-((2-(diethylamino)ethyl)-(methyl)amino)-4-methoxyphenyl)acrylamide]	100 to 500	< 100	500 to 1000
C=CC(=O)Nc1cc(Nc2ncc(Cl)c(-c3cn(C)c4ccccc34)n2)c(OC)cc1C#CCN(C)C [Example 45, N-(5-((5-chloro-4-(1-methyl-1H-indol-3-yl)pyrimidin-2-yl)amino)-2-(3-(dimethylamino)prop-1-yn-1-yl)-4-methoxyphenyl)acrylamide]	100 to 500	< 100	500 to 1000
C=CC(=O)Nc1cc(Nc2ncc(CC)c(-c3cnn4ccccc34)n2)c(OC)cc1N(C)CCN(C)C [Example 1, N-(2-((2-(dimethylamino)ethyl)(methyl)amino)-5-((5-ethyl-4-(pyrazolo[1,5-a]pyridin-3-yl)pyrimidin-2-yl)amino)-4-methoxyphenyl)acrylamide]	< 100	< 100	100 to 500
C=CC(=O)Nc1cc(Nc2ncc(Cl)c(-c3cnn4ccccc34)n2)c(OC)cc1OCCN1CCOCC1 [Example 50, N-(5-((5-chloro-4-(pyrazolo[1,5-a]pyridin-3-yl)pyrimidin-2-yl)amino)-4-methoxy-2-(2-morpholinoethoxy)phenyl)acrylamide]	> 1000	< 100	> 1000
C=CC(=O)Nc1cc(Nc2ncc(Cl)c(-c3cn(C)c4ccccc34)n2)c(OC)cc1O[C@@H](COCC)CN(C)C [Example 44, (R)-N-(5-((5-chloro-4-(1-methyl-1H-indol-3-yl)pyrimidin-2-yl)amino)-2-((1-(dimethylamino)-3-ethoxypropan-2-yl)oxy)-4-methoxyphenyl)acrylamide]	100 to 500	< 100	500 to 1000
C=CC(=O)Nc1cc(Nc2ncc(Cl)c(-c3cn(C)c4ccccc34)n2)c(OC)cc1C#CC(C)(C)N(C)C [Example 46, N-(5-((5-chloro-4-(1-methyl-1H-indol-3-yl)pyrimidin-2-yl)amino)-2-(3-(dimethylamino)-3-methylbut-1-yn-1-yl)-4-methoxyphenyl)acrylamide]	100 to 500	< 100	500 to 1000
C=CC(=O)Nc1cc(Nc2ncc(Cl)c(-c3cnn4ccccc34)n2)c(OC)cc1OCCN1CCCC1 [Example 49, N-(5-((5-chloro-4-(pyrazolo[1,5-a]pyridin-3-yl)pyrimidin-2-yl)amino)-4-methoxy-2-(2-(pyrrolidin-1-yl)ethoxy)phenyl)acrylamide]	100 to 500	< 100	500 to 1000
C=CC(=O)Nc1cc(Nc2ncc(Cl)c(-c3cnn4ccccc34)n2)c(OC)cc1N(C)CCN1CCOCC1 [Example 54, N-(5-((5-chloro-4-(pyrazolo[1,5-a]pyridin-3-yl)pyrimidin-2-yl)amino)-4-methoxy-2-(methyl(2-morpholinoethyl)amino)phenyl)-acrylamide]	500 to 1000	< 100	> 1000
C=CC(=O)Nc1cc(Nc2ncc(Cl)c(-c3cnn4ccccc34)n2)c(OC)cc1N(C)CCN(C)CCF [Example 33, N-(5-((5-chloro-4-(pyrazolo[1,5-a]pyridin-3-yl)pyrimidin-2-yl)amino)-2-((2-((2-fluoroethyl)(methyl)amino)ethyl)(methyl)amino)-4-methoxyphenyl)acrylamide]	100 to 500	< 100	500 to 1000
C=CC(=O)Nc1cc(Nc2ncc(Cl)c(-c3cnn4ccccc34)n2)c(OC)cc1OC(COC)CN(CC)CC (stereo not drawn) [Example 47, N-(5-((5-chloro-4-(pyrazolo[1,5-a]pyridin-3-yl)pyrimidin-2-yl)amino)-2-((1-(diethylamino)-3-methoxypropan-2-yl)oxy)-4-methoxyphenyl) acrylamide]	100 to 500	< 100	500 to 1000
